US20250382308A1, “COMPOUNDS ACTIVE TOWARDS BROMODOMAINS” (NUEVOLUTION A/S, priority 2022, published 2025)

Experiments:
[1] = molecular target: first bromodomain of BRD4 (Homo sapiens (Human), UniProt O60885); assay: Bromoscan binding assay BRD4 (1); conditions: for Kd: Bromoscan, geometric mean where multiple measurements have been made; for Selectivity BRD4(2)/BRD4(1): ratio BRD4(2) Kd / BRD4(1) Kd
Description: (§1) Compounds were assayed for binding affinity using bromoscan assays and a phosphodiesterase three assay.
(§2) Bromoscan assays were run by DiscoveRx Corporation. The relevant assay names are BRD4 (1) for the first bromodomain of BRD4 and BRD4 (2) for the second bromodomain of BRD4. Further Bromoscan assays covering other bromodomains may be employed to establish the selectivity profile of a compound of interest. To run the Bromoscan assay, a T7 phage strain displaying the relevant bromodomain was grown in parallel in 24-well blocks in an E. coli host derived from the BL21 strain. E. coli were grown to log-phase and infected with T7 phage from a frozen stock (multiplicity of infection=0.4) and incubated with shaking at 32° C. until lysis (90-150 minutes). The lysates were centrifuged (5,000×g) and filtered (0.2 μm) to remove cell debris. […] The liganded beads were blocked with excess biotin and washed with blocking buffer (SeaBlock (Pierce), 1% BSA (bovine serum albumin), 0.05% Tween 20, 1 mM DTT (dithiothreitol)) to remove unbound ligand and to reduce non-specific phage binding. […] Test compounds were prepared as 1000× stocks in 100% DMSO and subsequently diluted 1:10 in monoethylene glycol (MEG) to create stocks at 100× the screening concentration (resulting stock solution is 10% DMSO/90% MEG). The compounds were then diluted directly into the assays such that the final concentration of DMSO and MEG were 0.1% and 0.9%, respectively. All reactions were performed in polystyrene 96-well plates in a final volume of 0.135 ml. […] The bromodomain concentration in the eluates was measured by qPCR (quantitative real-time polymerase chain reaction). Binding constants (Kds) were calculated with a standard dose-response curve using the Hill equation: Response=Blackground+((Signal-Background)/(1+Kd^Hill Slope/Dose^Hill Slope)). The Hill Slope was set to −1. Curves were fitted using a non-linear least square fit with the Levenberg-Marquardt algorithm.

[2] = molecular target: second bromodomain of BRD4 (Homo sapiens (Human), UniProt O60885); assay: Bromoscan binding assay BRD4 (2); conditions: geometric mean where multiple measurements have been made
Description: as §1, §2

[3] = molecular target: human recombinant phosphodiesterase (PDE3A) (Homo sapiens (Human), UniProt Q14432); assay: Radiometric PDE3A assay; type: biochemical; conditions: [3H]-cAMP hydrolysis, 20 minutes at 30° C.
Chain of human recombinant phosphodiesterase (PDE3A) (Q14432 whole entry): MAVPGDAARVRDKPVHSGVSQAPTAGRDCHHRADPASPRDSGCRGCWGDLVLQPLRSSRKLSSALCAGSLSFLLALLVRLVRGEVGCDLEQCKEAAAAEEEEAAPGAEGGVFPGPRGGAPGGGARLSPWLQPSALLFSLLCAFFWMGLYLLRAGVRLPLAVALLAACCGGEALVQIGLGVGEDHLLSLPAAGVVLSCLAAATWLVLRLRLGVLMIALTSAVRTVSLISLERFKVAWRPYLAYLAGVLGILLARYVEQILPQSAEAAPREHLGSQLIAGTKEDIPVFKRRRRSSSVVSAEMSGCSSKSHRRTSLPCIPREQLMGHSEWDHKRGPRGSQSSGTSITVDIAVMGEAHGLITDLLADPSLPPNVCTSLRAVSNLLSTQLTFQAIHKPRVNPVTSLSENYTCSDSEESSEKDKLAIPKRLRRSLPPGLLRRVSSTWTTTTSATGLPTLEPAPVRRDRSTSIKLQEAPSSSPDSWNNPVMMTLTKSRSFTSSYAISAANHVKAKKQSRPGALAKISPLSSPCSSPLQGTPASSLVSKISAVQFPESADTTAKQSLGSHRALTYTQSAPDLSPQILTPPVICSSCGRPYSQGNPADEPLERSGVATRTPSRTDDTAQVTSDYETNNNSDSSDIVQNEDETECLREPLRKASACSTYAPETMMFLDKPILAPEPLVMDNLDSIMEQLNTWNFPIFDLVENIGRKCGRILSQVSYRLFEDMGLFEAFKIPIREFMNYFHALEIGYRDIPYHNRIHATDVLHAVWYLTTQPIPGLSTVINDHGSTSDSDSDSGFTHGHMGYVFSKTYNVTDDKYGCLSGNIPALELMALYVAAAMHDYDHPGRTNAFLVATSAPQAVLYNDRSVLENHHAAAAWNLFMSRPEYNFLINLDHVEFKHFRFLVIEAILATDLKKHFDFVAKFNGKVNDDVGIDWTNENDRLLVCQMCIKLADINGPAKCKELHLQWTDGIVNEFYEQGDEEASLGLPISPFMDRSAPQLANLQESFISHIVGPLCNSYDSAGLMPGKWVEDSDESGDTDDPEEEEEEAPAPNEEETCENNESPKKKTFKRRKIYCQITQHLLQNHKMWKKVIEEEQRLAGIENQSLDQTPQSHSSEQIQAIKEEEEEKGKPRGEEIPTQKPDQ
Description: Partially purified human recombinant phosphodiesterase (PDE3A) was obtained by cloning cDNA and expressing in S. frugiperda insect cells using a baculovirus expression system. Cells were harvested from culture by centrifuging at 400×g for 5 minutes. Cell pellet was resuspended in 20 ml of RIPA Buffer (150 mM NaCl, 10 mM Tris, 0.1% NP-40, pH8.3), 4 ml/200 ml of culture, plus protease inhibitors (100 μl/10 ml) and incubated on ice for 10-20 minutes then spun at 3500×g for 10 minutes at 4° C. Supernatant was kept and the pellet thrown away. Tritium-labeled cyclic AMP was hydrolysed to 5′-AMP by PDE3A. The 5′-AMP was then further hydrolysed to adenosine by nucleotidase in snake venom. An anion-exchange resin binds all charged nucleotides and leaves [3H]adenosine as the only labeled compound to be counted by liquid scintillation. The radiometric assay method is a modification of the two-step method of Thompson and Appleman [Biochemistry 10; 311-316; 1971], adapted for a 96 well plate format. 50 μl of diluted PDE3A was incubated with 50 μl of [3H]-CAMP (specific activity 25 Ci/mmol) and 11 μl of 50% DMSO (or compound dilution) for 20 minutes at 30° C. The enzyme was diluted in 20 mM Tris HCl pH7.4 (×2.2 final concentration) and [3H]-cAMP were diluted in 10 mM MgCl2, 40 mM Tris HCl pH 7.4 (×2.2 final concentration). Reactions were carried out in Greiner 96 deep well 1 ml master-block. The plates were centrifuged for 9 seconds before the 20 minutes incubation. The reaction was terminated by denaturing the PDE enzyme (at 70° C. for 2 minutes, plates were left to cool on ice for 10 minutes) after which 25 μl snake venom nucleotidase (225 ug/ml final concentration) was added and incubated for 10 minutes (at 30° C.), plates were centrifuged for 9 seconds before incubation. After incubation 200 μl Dowex resin (1×8, 200-400 mesh) was added and the plate was shaken for 20 minutes then centrifuged for 3 minutes at 1000×g. 50 μl of supernatant was removed and added to 200 μl of MicroScint-20 in white plates (Greiner 96-well Optiplate) and shaken for 30 minutes before reading on Perkin Elmer TopCount Scintillation Counter. GraphPad Prism™ was used to calculate the IC50 values using a sigmoidal dose response (variable slope). The analysis measures 4 parameters including the best fit values for the bottom and top fit of the curve, the hill slope value and the IC50 value.

## CNCCOc1cc(NC(=O)c2cc3c(nc2N2CCOCC2)COC3)cc2c(C)cc(=O)[nH]c12 [Example 38, N-[4-methyl-8-[2-(methylamino)ethoxy]-2-oxo-1H-quinolin-6-yl]-2-morpholino-5,7-dihydrofuro[3,4-b]pyridine-3-carboxamide]
[1]
  Kd: 20 nM
  Selectivity BRD4(2)/BRD4(1): >250
[2]
  Kd: > 5000 nM
[3]
  IC50: > 10 µM

## COc1cc(NC(=O)c2cc3c(nc2N2C4CCC2CC4)COC3)cc2c(C)cc(=O)[nH]c12 [Example 39, 2-(7-azabicyclo[2.2.1]heptan-7-yl)-N-(8-methoxy-4-methyl-2-oxo-1H-quinolin-6-yl)-5,7-dihydrofuro[3,4-b]pyridine-3-carboxamide]
[1]
  Kd: 7 nM
  Selectivity BRD4(2)/BRD4(1): 43
[2]
  Kd: 300 nM
[3]
  IC50: > 10 µM

## Cc1cc(=O)[nH]c2c(OC3CNC3)cc(NC(=O)c3cc4c(nc3N3CCOCC3)COC4)cc12 [Example 37, N-[8-(azetidin-3-yloxy)-4-methyl-2-oxo-1H-quinolin-6-yl]-2-morpholino-5,7-dihydrofuro[3,4-b]pyridine-3-carboxamide]
[1]
  Kd: 35 nM
  Selectivity BRD4(2)/BRD4(1): >286
[2]
  Kd: > 10000 nM
[3]
  IC50: > 10 µM

## COc1cc(NC(=O)c2cc3c(nc2N2CCOCC2)COC3)cc2c(C)cc(=O)[nH]c12 [Example 15, N-(8-methoxy-4-methyl-2-oxo-1H-quinolin-6-yl)-2-morpholino-5,7-dihydrofuro[3,4-b]pyridine-3-carboxamide]
[1]
  Kd: 14 nM
  Selectivity BRD4(2)/BRD4(1): 157
[2]
  Kd: 2200 nM
[3]
  IC50: > 10 µM

## COc1cc(NC(=O)c2cc3c(nc2N(C)C)COC3)cc2c(C)cc(=O)[nH]c12 [Example 6, 2-(dimethylamino)-N-(8-methoxy-4-methyl-2-oxo-1H-quinolin-6-yl)-5,7-dihydrofuro[3,4-b]pyridine-3-carboxamide]
[1]
  Kd: 120 nM
  Selectivity BRD4(2)/BRD4(1): 11
[2]
  Kd: 1300 nM
[3]
  IC50: > 10 µM
